Series [1] is described as follows: Solubility in saline or DI water at room temperature (visual inspection). It counts as physicochemical.
A short description of series [2]: Acute food intake inhibition in Long Evans rats after bolus SC dosing (BioDAQ). As to conditions: 30 mcg SC bolus. Type of series: in vivo, rat.
A short description of series [3]: Stability in DMSO or DI water at 37° C. (purity by LC/MS and HPLC). Type of series: physicochemical.

Results on six molecules are retold here after patent publication US12084485B2 (Intarcia Therapeutics, Inc., priority 2020, dated 2024).

As a reminder, the solubility is the dissolved amount per volume that the medium holds. Read a high solubility as much dissolved substance.

SMILES strings stand for the structures. Bounds are passed on as bounds.

On to `CC[C@H](C)[C@H](NC(=O)[C@H](Cc1ccccc1)NC(=O)[C@H](CCC(=O)O)NC(=O)[C@H](CCCNC(=N)N)NC(=O)[C@@H](NC(=O)[C@H](C)NC(=O)[C@H](CCC(=O)O)NC(=O)[C@H](CCCCNC(=O)CC[C@H](NC(=O)CC[C@H](NC(=O)COCCOCCNC(=O)CCCCCCCCCCCCCCCCCCC(=O)O)C(=O)O)C(=O)O)NC(=O)[C@H](CCC(=O)O)NC(=O)[C@H](Cc1ccc(O)cc1)NC(=O)[C@H](CCC(N)=O)NC(=O)[C@H](CCCCN)NC(=O)[C@H](CO)NC(=O)[C@H](CC(C)C)NC(=O)[C@H](CC(=O)O)NC(=O)[C@H](CO)NC(=O)[C@@H](NC(=O)[C@H](Cc1ccccc1)NC(=O)[C@@H](NC(=O)CNC(=O)[C@H](CCC(=O)O)NC(=O)C(C)(C)NC(=O)[C@@H](N)Cc1c[nH]cn1)[C@@H](C)O)[C@@H](C)O)C(C)C)C(=O)N[C@@H](CCC(=O)O)C(=O)N[C@@H](Cc1c[nH]c2ccccc12)C(=O)N[C@@H](CC(C)C)C(=O)N[C@@H](CCCCN)C(=O)N[C@@H](CC(N)=O)C(=O)NCC(=O)NCC(=O)N1CCC[C@H]1C(=O)N[C@@H](Cc1c[nH]cn1)C(=O)N[C@@H](CO)C(=O)NCC(=O)N[C@@H](C)C(=O)N1CCC[C@H]1C(=O)N1CCC[C@H]1C(=O)N1CCC[C@H]1C(=O)N[C@@H](CO)C(N)=O` [Compound A152], for which the solubility in series [1] (Solubility (mg/mL) in DI water) was > 109 mg/mL; in series [1] (Solubility (mg/mL) in saline) it was > 101 mg/mL.

Turning to `CC[C@H](C)[C@H](NC(=O)[C@H](Cc1ccccc1)NC(=O)[C@H](CCCCN)NC(=O)[C@H](CCCNC(=N)N)NC(=O)[C@H](C)NC(=O)[C@H](C)NC(=O)[C@H](CCC(=O)O)NC(=O)[C@H](CCCCNC(=O)CC[C@H](NC(=O)CC[C@H](NC(=O)COCCOCCNC(=O)CCCCCCCCCCCCCCCCCCC(=O)O)C(=O)O)C(=O)O)NC(=O)[C@H](CCC(=O)O)NC(=O)[C@H](Cc1ccc(O)cc1)NC(=O)[C@H](CCC(N)=O)NC(=O)[C@H](CCCCN)NC(=O)[C@H](CO)NC(=O)[C@H](CC(C)C)NC(=O)[C@H](CC(=O)O)NC(=O)[C@H](CO)NC(=O)[C@@H](NC(=O)[C@H](Cc1ccccc1)NC(=O)[C@@H](NC(=O)CNC(=O)[C@H](CCC(=O)O)NC(=O)C(C)(C)NC(=O)[C@@H](N)Cc1c[nH]cn1)[C@@H](C)O)[C@@H](C)O)C(=O)N[C@@H](CO)C(=O)N[C@@H](Cc1c[nH]c2ccccc12)C(=O)N[C@@H](CC(C)C)C(=O)N[C@@H](CCCCN)C(=O)N[C@@H](CC(N)=O)C(=O)NCC(=O)NCC(=O)N1CCC[C@H]1C(=O)N[C@@H](Cc1c[nH]cn1)C(=O)N[C@@H](CO)C(=O)NCC(=O)N[C@@H](C)C(=O)N1CCC[C@H]1C(=O)N1CCC[C@H]1C(=O)N1CCC[C@H]1C(=O)N[C@@H](CO)C(N)=O` [Compound A62], in series [2] (0-24 hr), the “% Food Intake Inhibition from Vehicle, 0-24 hr” value was −37.1%. For the same molecule, the “% Food Intake Inhibition from Vehicle, 25-48 hr” value in series [2] (25-48 hr) is listed as −48.8%. The “% Food Intake Inhibition from Vehicle, 49-72 hr” value in series [2] (49-72 hr) is reported as −47.4%. The “% Food Intake Inhibition from Vehicle, 73-96 hr” value in series [2] (73-96 hr) amounted to 19.5%.

As to `CC[C@H](C)[C@H](NC(=O)[C@H](Cc1ccccc1)NC(=O)[C@H](CCC(=O)O)NC(=O)[C@H](CCCNC(=N)N)NC(=O)[C@H](C)NC(=O)[C@H](C)NC(=O)[C@H](CCC(=O)O)NC(=O)[C@H](CCNC(=O)CC[C@H](NC(=O)CC[C@H](NC(=O)COCCOCCNC(=O)CC[C@H](NC(=O)CC[C@H](NC(=O)CCCCCCCCCCCCCCCCCCC(=O)O)C(=O)O)C(=O)O)C(=O)O)C(=O)O)NC(=O)[C@H](CCC(=O)O)NC(=O)[C@H](Cc1ccc(O)cc1)NC(=O)[C@H](CCC(N)=O)NC(=O)[C@H](CCCCN)NC(=O)[C@H](CO)NC(=O)[C@H](CC(C)C)NC(=O)[C@H](CC(=O)O)NC(=O)[C@H](CO)NC(=O)[C@@H](NC(=O)[C@H](Cc1ccccc1)NC(=O)[C@@H](NC(=O)CNC(=O)[C@H](CCC(=O)O)NC(=O)C(C)(C)NC(=O)[C@@H](N)Cc1c[nH]cn1)[C@@H](C)O)[C@@H](C)O)C(=O)N[C@@H](CCC(=O)O)C(=O)N[C@@H](Cc1c[nH]c2ccccc12)C(=O)N[C@@H](CC(C)C)C(=O)N[C@@H](CCCCN)C(=O)N[C@@H](CC(N)=O)C(=O)NCC(=O)NCC(=O)N1CCC[C@H]1C(=O)N[C@@H](CO)C(=O)N[C@@H](CO)C(=O)NCC(=O)N[C@@H](C)C(=O)N1CCC[C@H]1C(=O)N1CCC[C@H]1C(=O)N1CCC[C@H]1C(=O)N[C@@H](CO)C(N)=O` [Compound A72], in series [3], the “Stability @ 37° C. (% purity) Day 14” value came to 98.7% and the “Stability @ RT (% purity) Day 28” value came out at 95.1%.

With `CC[C@H](C)[C@H](NC(=O)[C@H](Cc1ccccc1)NC(=O)[C@H](CCC(=O)O)NC(=O)[C@H](CCCNC(=N)N)NC(=O)[C@H](C)NC(=O)[C@H](C)NC(=O)[C@H](CCC(=O)O)NC(=O)[C@H](CCCCNC(=O)CC[C@H](NC(=O)CC[C@H](NC(=O)COCCOCCNC(=O)CC[C@H](NC(=O)CC[C@H](NC(=O)CCCCCCCCCCCCCCCCCCC(=O)O)C(=O)O)C(=O)O)C(=O)O)C(=O)O)NC(=O)[C@H](CCC(=O)O)NC(=O)[C@H](Cc1ccc(O)cc1)NC(=O)[C@H](CCC(N)=O)NC(=O)[C@H](CCC(=O)O)NC(=O)[C@H](CO)NC(=O)[C@@H](NC(=O)[C@H](CC(=O)O)NC(=O)[C@H](CO)NC(=O)[C@@H](NC(=O)[C@H](Cc1ccccc1)NC(=O)[C@@H](NC(=O)CNC(=O)[C@H](CCC(=O)O)NC(=O)C(C)(C)NC(=O)[C@@H](N)Cc1c[nH]cn1)[C@@H](C)O)[C@@H](C)O)[C@@H](C)CC)C(=O)N[C@@H](CCC(=O)O)C(=O)N[C@@H](Cc1c[nH]c2ccccc12)C(=O)N[C@@H](CC(C)C)C(=O)N[C@@H](CCCCN)C(=O)N[C@@H](CC(N)=O)C(=O)NCC(=O)NCC(=O)N1CCC[C@H]1C(=O)N[C@@H](CO)C(=O)N[C@@H](CO)C(=O)NCC(=O)N[C@@H](C)C(=O)N1CCC[C@H]1C(=O)N1CCC[C@H]1C(=O)N1CCC[C@H]1C(=O)N[C@@H](CO)C(N)=O` [Compound A80], the results for the solubility in series [1] (Solubility (mg/mL) in DI water) and in series [1] (Solubility (mg/mL) in saline) were > 78 mg/mL and > 75 mg/mL, respectively.

Turning to `CC[C@H](C)[C@H](NC(=O)[C@H](Cc1ccccc1)NC(=O)[C@H](CCC(=O)O)NC(=O)[C@H](CCCNC(=N)N)NC(=O)[C@H](C)NC(=O)[C@H](C)NC(=O)[C@H](CCC(=O)O)NC(=O)[C@H](CCCCNC(=O)CC[C@H](NC(=O)CC[C@H](NC(=O)COCCOCCNC(=O)CC[C@H](NC(=O)CC[C@H](NC(=O)CCCCCCCCCCCCCCCCCCC(=O)O)C(=O)O)C(=O)O)C(=O)O)C(=O)O)NC(=O)[C@H](CCC(=O)O)NC(=O)[C@H](Cc1ccc(O)cc1)NC(=O)[C@H](CCC(N)=O)NC(=O)[C@H](CCCCN)NC(=O)[C@H](CO)NC(=O)[C@H](CC(C)C)NC(=O)[C@H](CC(=O)O)NC(=O)[C@H](CO)NC(=O)[C@@H](NC(=O)[C@H](Cc1ccccc1)NC(=O)[C@@H](NC(=O)CNC(=O)[C@H](CCC(=O)O)NC(=O)C(C)(C)NC(=O)[C@@H](N)Cc1c[nH]cn1)[C@@H](C)O)[C@@H](C)O)C(=O)N[C@@H](CCC(=O)O)C(=O)N[C@@H](Cc1c[nH]c2ccccc12)C(=O)N[C@@H](CC(C)C)C(=O)N[C@@H](CCCCN)C(=O)N[C@@H](CC(N)=O)C(=O)NCC(=O)NCC(=O)N1CCC[C@H]1C(=O)N[C@@H](Cc1c[nH]cn1)C(=O)N[C@@H](CO)C(=O)NCC(=O)N[C@@H](C)C(=O)N1CCC[C@H]1C(=O)N1CCC[C@H]1C(=O)N1CCC[C@H]1C(=O)N[C@@H](CO)C(N)=O` [Compound A154], the solubility in series [1] (Solubility (mg/mL) in DI water) was > 70 mg/mL; in series [1] (Solubility (mg/mL) in saline), > 106 mg/mL.

Consider `CC[C@H](C)[C@H](NC(=O)[C@H](Cc1ccccc1)NC(=O)[C@H](CCC(N)=O)NC(=O)[C@H](CCCNC(=N)N)NC(=O)[C@@H](NC(=O)[C@H](C)NC(=O)[C@H](CCC(=O)O)NC(=O)[C@H](CCCCNC(=O)CC[C@H](NC(=O)CC[C@H](NC(=O)COCCOCCNC(=O)CCCCCCCCCCCCCCCCCCC(=O)O)C(=O)O)C(=O)O)NC(=O)[C@H](CCC(=O)O)NC(=O)[C@H](Cc1ccc(O)cc1)NC(=O)[C@H](CCC(N)=O)NC(=O)[C@H](CCCCN)NC(=O)[C@H](CO)NC(=O)[C@H](CC(C)C)NC(=O)[C@H](CC(=O)O)NC(=O)[C@H](CO)NC(=O)[C@@H](NC(=O)[C@H](Cc1ccccc1)NC(=O)[C@@H](NC(=O)CNC(=O)[C@H](CCC(=O)O)NC(=O)C(C)(C)NC(=O)[C@@H](N)Cc1c[nH]cn1)[C@@H](C)O)[C@@H](C)O)C(C)C)C(=O)N[C@@H](CO)C(=O)N[C@@H](Cc1c[nH]c2ccccc12)C(=O)N[C@@H](CC(C)C)C(=O)N[C@@H](CCCCN)C(=O)N[C@@H](CC(N)=O)C(=O)NCC(=O)NCC(=O)N1CCC[C@H]1C(=O)N[C@@H](CO)C(=O)N[C@@H](CO)C(=O)NCC(=O)N[C@@H](C)C(=O)N1CCC[C@H]1C(=O)N1CCC[C@H]1C(=O)N1CCC[C@H]1C(=O)N[C@@H](CO)C(N)=O` [Compound A96], for which the values for the solubility in series [1] (Solubility (mg/mL) in DI water) and in series [1] (Solubility (mg/mL) in saline) were > 128 mg/mL and > 133 mg/mL, respectively.
